Values joined by “and” are separate entries in the source; they are usually repeats but may differ in a detail not shown here. Equal values may be shown once. Read-outs that look alike come from different tables or passages of the source.
Key:
[1] = biological target: C. auris Bdf1 BD1 (Candidozyma auris (Candida auris), UniProt A0AAW0VEM6); assay: HTRF assay, inhibition of H4ac4 peptide binding
[2] = biological target: T1, CaBdf1 BD1 (Candida albicans, UniProt Q5A4W8); assay: HTRF assay, inhibition of H4ac4 peptide binding; parameters: species or system C. albicans
T1 construct: BD1 (residues 193–327) and BD2 (residues 361–501) from CaBdf1 (Uniprot ID Q5A4W8); made in house; host or cells: E. coli BL21(DE3)
T1 sequence (Q5A4W8 193-327): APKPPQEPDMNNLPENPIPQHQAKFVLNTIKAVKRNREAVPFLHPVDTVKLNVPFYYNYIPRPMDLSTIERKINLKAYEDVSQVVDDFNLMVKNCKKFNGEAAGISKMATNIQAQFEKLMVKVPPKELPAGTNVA

[3] = biological target: T2, CaBdf1 BD2 (Candida albicans, UniProt Q5A4W8); assay: HTRF assay, inhibition of H4ac4 peptide binding; parameters: species or system C. albicans
T2 construct: BD1 (residues 193–327) and BD2 (residues 361–501) from CaBdf1 (Uniprot ID Q5A4W8); made in house; host or cells: E. coli BL21(DE3)
T2 sequence (Q5A4W8 361-501): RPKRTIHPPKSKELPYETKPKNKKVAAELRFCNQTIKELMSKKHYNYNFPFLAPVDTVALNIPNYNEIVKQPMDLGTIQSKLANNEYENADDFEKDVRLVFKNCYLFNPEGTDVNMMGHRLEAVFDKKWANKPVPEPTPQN

[4] = system: C. parapsilosis; assay: Growth in liquid media; type: cell-based; conditions: Fig 5C; for Growth (%): C. parapsilosis
Method: Strains were presented in Table S8 (Supporting Information). Cells from a single colony were diluted in 0.85% NaCl before being counted using a Neubauer chamber. They were diluted to a final concentration of 6500 cells mL^−1 per well for all clinical strains of C. albicans and C. glabrata; 65 000 cells mL^−1 per well for C. auris; 13 500 cells mL^−1 per well for C. parapsilosis; 3375 cells mL^−1 per well for C. krusei and 1687.5 cells mL^−1 per well for C. tropicalis, in a sterile 96‐well plate. Cells were then grown in SC medium with or without chemical compounds at 30 °C with regular shaking. The significance of growth defects was assessed using Holm‐Sidak method by GraphPad Prism 10.

[5] = biological target: T3, Bdf1/Swc4 (Saccharomyces cerevisiae, UniProt P35817); assay: NanoBiT assay, control pair; type: cell-based, S. cerevisiae; parameters: remaining activity: dose or concentration left out as unconfirmed
T3 construct: expressed in transfected cells; host or cells: S. cerevisiae
T3 sequence (P35817 whole entry): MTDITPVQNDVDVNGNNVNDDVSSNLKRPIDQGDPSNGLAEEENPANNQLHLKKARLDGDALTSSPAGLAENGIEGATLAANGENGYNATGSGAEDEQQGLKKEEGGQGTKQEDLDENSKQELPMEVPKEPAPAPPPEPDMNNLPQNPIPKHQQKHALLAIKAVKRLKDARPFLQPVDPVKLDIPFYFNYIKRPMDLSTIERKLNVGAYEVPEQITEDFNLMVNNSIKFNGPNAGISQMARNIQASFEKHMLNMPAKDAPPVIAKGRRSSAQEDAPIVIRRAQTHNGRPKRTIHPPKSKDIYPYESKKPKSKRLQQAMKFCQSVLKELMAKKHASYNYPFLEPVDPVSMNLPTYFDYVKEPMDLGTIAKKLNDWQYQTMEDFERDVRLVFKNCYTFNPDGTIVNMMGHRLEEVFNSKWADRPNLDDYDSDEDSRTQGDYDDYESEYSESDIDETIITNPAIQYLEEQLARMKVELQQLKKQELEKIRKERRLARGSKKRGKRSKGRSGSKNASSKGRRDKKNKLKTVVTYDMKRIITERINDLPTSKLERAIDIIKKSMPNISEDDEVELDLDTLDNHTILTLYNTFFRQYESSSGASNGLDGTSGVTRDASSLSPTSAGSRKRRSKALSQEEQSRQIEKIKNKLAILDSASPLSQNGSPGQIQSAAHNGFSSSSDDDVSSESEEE
T3 sequence (P53201 whole entry, further chain): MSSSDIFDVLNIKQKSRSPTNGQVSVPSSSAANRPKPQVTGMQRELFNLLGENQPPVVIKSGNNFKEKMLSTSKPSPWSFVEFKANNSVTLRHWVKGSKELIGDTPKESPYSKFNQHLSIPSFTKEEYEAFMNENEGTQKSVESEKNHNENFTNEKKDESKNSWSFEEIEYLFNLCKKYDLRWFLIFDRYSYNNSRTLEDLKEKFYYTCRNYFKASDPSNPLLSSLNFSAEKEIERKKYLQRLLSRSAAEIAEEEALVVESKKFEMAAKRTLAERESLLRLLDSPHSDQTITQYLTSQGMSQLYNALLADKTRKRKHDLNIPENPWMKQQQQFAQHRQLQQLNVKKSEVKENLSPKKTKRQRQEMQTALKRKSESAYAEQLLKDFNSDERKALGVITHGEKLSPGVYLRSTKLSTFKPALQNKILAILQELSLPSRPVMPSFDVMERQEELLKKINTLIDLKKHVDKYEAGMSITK
Method: Yeast strains were distributed in 96‐well microplates containing SC(MSG)‐U medium (SC‐U medium with 0.1% monosodium glutamate instead of ammonium sulfate as a nitrogen source) and grown at 30 °C. 40 µL of exponentially growing cells were transferred in white 96‐well half‐area microplates (ProxiPlate Plus, Greiner Bio‐One) previously filled with 40 µL per well of SC(MSG) containing 100 µM furimazine. The microplates were then incubated for 10 min in the dark before the luminescence signals were recorded using a microplate reader (Ensight, PerkinElmer). Luminescence measurements were performed for 1 s per well at a distance of 0.1 mm between the plate and the detector. The luminescence values were normalized with the optical density (OD600) of the corresponding cultures. For NanoBiT assays with BET inhibitors, yeast cultures were grown overnight at 30 °C in SC(MSG) medium in the presence of serial dilutions of 24c and I‐BET726. Overnight cultures were diluted 5 fold in SC(MSG) and incubated for 1 h before luminescence was recorded as previously indicated. Luminescence values for each condition were normalized using the average of the luminescence recorded for the Bdf1/Swc4 and Bmh1/Bmh2 controls.

[6] = read-out: HTRF signal, normalized (Figure 5A data)

C. auris Bdf1 BD1, sequence (A0AAW0VEM6 entry or part of it): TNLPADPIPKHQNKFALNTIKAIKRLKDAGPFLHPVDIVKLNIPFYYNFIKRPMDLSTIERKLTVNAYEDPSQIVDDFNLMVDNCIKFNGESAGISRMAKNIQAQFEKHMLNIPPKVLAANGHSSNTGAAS

`CC(=O)N1c2ccc(-c3ccc(C(=O)O)cc3)cc2C(Nc2ccc(Cl)cc2)CC1C` (centres unmarked) [I-BET726] gave a remaining activity at 0.0021 µM ([1]; CauBD1, 2.10 nM, read-out: HTRF signal, normalized (Figure 5A data)) of 105%, a remaining activity at 0.01311 µM ([1]; CauBD1, 13.11 nM, read-out: HTRF signal, normalized (Figure 5A data)) of 103% and a remaining activity at 0.03277 µM ([1]; CauBD1, 32.77 nM, read-out: HTRF signal, normalized (Figure 5A data)) of 106%. For the same molecule, the remaining activity at 0.2048 µM ([1]; CauBD1, 204.8 nM, read-out: HTRF signal, normalized (Figure 5A data)) was 107%, the remaining activity at 1.28 µM ([1]; CauBD1, 1280 nM, read-out: HTRF signal, normalized (Figure 5A data)) was 100% and the remaining activity at 3.2 µM ([1]; CauBD1, 3200 nM, read-out: HTRF signal, normalized (Figure 5A data)) was 74.9%. It also gave a remaining activity at 8 µM ([1]; CauBD1, 8000 nM, read-out: HTRF signal, normalized (Figure 5A data)) of 34.7%, an IC50 ([1]; Fig 5A, four replicates, read-out: IC50 (μM) BD1, C. aur. Bdf1) of 14.7 ± 0.1 µM and a remaining activity at 0.00524 µM [1, 6] of 103%. It also gave a remaining activity at 0.512 µM [1, 6] of 103%, a remaining activity at 0.0021 µM ([2]; CaBD1, 2.10 nM, read-out: HTRF signal, normalized (Figure 5A data)) of 103% and a remaining activity at 0.01311 µM ([2]; CaBD1, 13.11 nM, read-out: HTRF signal, normalized (Figure 5A data)) of 96%. The remaining activity at 0.03277 µM ([2]; CaBD1, 32.77 nM, read-out: HTRF signal, normalized (Figure 5A data)) was 90.6%, the remaining activity at 0.08192 µM ([2]; CaBD1, 81.92 nM, read-out: HTRF signal, normalized (Figure 5A data)) was 66.5% and the remaining activity at 0.2048 µM ([2]; CaBD1, 204.8 nM, read-out: HTRF signal, normalized (Figure 5A data)) was 27%. It also gave a remaining activity at 0.512 µM ([2]; CaBD1, 512 nM, read-out: HTRF signal, normalized (Figure 5A data)) of 5.16%, an IC50 ([2]; Fig 5A, four replicates, read-out: IC50 (μM) BD1, C. alb. Bdf1) of 0.27 ± 0.02 µM and a remaining activity at 0.00524 µM [2, 6] of 103%. For the same molecule, the remaining activity at 0.01311 µM [2, 6] was 99.9%, the remaining activity at 1.28 µM [2, 6] was 2.74% and the remaining activity at 3.2 µM [2, 6] was 1.61%. It also gave a remaining activity at 0.0021 µM ([3]; CaBD2, 2.10 nM, read-out: HTRF signal, normalized (Figure 5A data)) of 108%, a remaining activity at 0.01311 µM ([3]; CaBD2, 13.11 nM, read-out: HTRF signal, normalized (Figure 5A data)) of 98.4% and a remaining activity at 0.03277 µM ([3]; CaBD2, 32.77 nM, read-out: HTRF signal, normalized (Figure 5A data)) of 95.1%. The remaining activity at 0.2048 µM ([3]; CaBD2, 204.8 nM, read-out: HTRF signal, normalized (Figure 5A data)) was 61.4%, the remaining activity at 0.512 µM ([3]; CaBD2, 512 nM, read-out: HTRF signal, normalized (Figure 5A data)) was 25.6% and the remaining activity at 1.28 µM ([3]; CaBD2, 1280 nM, read-out: HTRF signal, normalized (Figure 5A data)) was 11.4%. The IC50 ([3]; Fig 5A, four replicates, read-out: IC50 (μM) BD2, C. alb. Bdf1) was 0.63 ± 0.05 µM, the remaining activity at 0.00524 µM [3, 6] was 102% and the “Growth (%)” value ([4]; 1.5625 µM) was 87% and 91% and 88%. For the same molecule, the “Growth (%)” value ([4]; 3.125 µM) was 79% and 80% and 78%, the “Growth (%)” value ([4]; 25 µM) was 58% and 59% and 57% and the EC50 ([4]; Lodderomyces parapsilosis) was about 30 µM. It also gave a remaining activity at 24.41 µM ([5]; Bdf1-SmBiT, Swc4-LgBiT, 0.02441 mM, Fig 4C, read-out: Normalized nanoBiT signal) of 95%, a remaining activity at 97.66 µM ([5]; Bdf1-SmBiT, Swc4-LgBiT, 0.09766 mM, Fig 4C, read-out: Normalized nanoBiT signal) of 93% and a remaining activity at 195.31 µM ([5]; Bdf1-SmBiT, Swc4-LgBiT, 0.19531 mM, Fig 4C, read-out: Normalized nanoBiT signal) of 95%. For the same molecule, the remaining activity at 390.63 µM ([5]; Bdf1-SmBiT, Swc4-LgBiT, 0.39063 mM, Fig 4C, read-out: Normalized nanoBiT signal) was 91%, the remaining activity at 781.25 µM ([5]; Bdf1-SmBiT, Swc4-LgBiT, 0.78125 mM, Fig 4C, read-out: Normalized nanoBiT signal) was 90% and the remaining activity ([5]; Bdf1-SmBiT, Swc4-LgBiT, […], Fig 4C, read-out: Normalized nanoBiT signal) was 99%. For the same molecule, the “inhibition of NanoBiT signal, Bdf1/Swc4” value ([5]; control pair independent of Bdf1 BDs) was “not observed” and the remaining activity at 48.83 µM ([5]; read-out: Normalized nanoBiT signal) was 92%.

— article PMC11904993, “Humanized Candida and NanoBiT Assays Expedite Discovery of Bdf1 Bromodomain Inhibitors With Antifungal Potential” (Advanced Science, 2025)
